From publication PMC12518639, “Apomorphine is a novel necroptosis inhibitor targeting mixed lineage kinase domain-like protein oligomerization” (Cell Death Discovery, 2025)

How the values were obtained:
mouse MLKL (mMLKL) = experiment: MLKL oligomerization Western blot in J774A.1 cells; assay type: cell-based; details: J774A.1, TBZ, 20 μM, 8 h
Experimental: Fig. 2 Effect of redox-sensitive APO on MLKL oligomerization. A Chemical structure of APO. APO undergoes auto-oxidation to form the oxidized form (Ox-APO), while the addition of DTT preserves the reduced form (Re-APO). The red highlights indicate the sites where APO loses hydrogen and electrons during the oxidation process. B Real-time 1D ^1H NMR spectra showing the degree of oxidation of APO. APO was dissolved from its powdered form in DPBS and incubated at 25 °C for 36 h. Real-time 1D ^1H NMR spectra were measured at a 2 h intervals after filtration through a 0.2 μm syringe filter to remove precipitates. […] C MLKL oligomerization is inhibited by APO. THP-1 cells were treated with TBZ and Re-APO or Ox-APO for 8 h. Western blot analysis of WCLs was performed under non-reducing and reducing conditions using the indicated antibodies. Percentage changes of p-MLKL oligomer band relative to GAPDH were shown. The p value for MLKL oligomer band intensity was calculated based on the average intensity of the tetramer and octamer bands. Octa octamer, Tetra tetramer, Mono monomer. Mean ± SEM (n = 3). **p < 0.001, ns not significant, one-way ANOVA. D THP-1 cells were treated with TBZ and Ox-APO or Re-APO for 8 h and then stained with DAPI and MLKL for confocal microscopy. In the intensity graph, green indicates MLKL. The signal intensity of MLKL fluorescence from the plasma membrane to the cytosol was measured using FluoView FV1000 software. Mean ± SEM (n > 100). **p < 0.01, ***p < 0.001, one-way ANOVA. E J774A.1 mouse monocytic cells were treated with TBZ and 20 μM Re-APO or Ox-APO for 8 h. Western blot analysis of WCLs was performed under non-reducing and reducing conditions using the indicated antibodies.
The cells were harvested and lysed in 1× RIPA buffer (R4100-010, GenDEPOT, Katy, TX, USA) containing protease (P3100-001, GenDEPOT) and phosphatase (1862495, Thermo Fisher Scientific) inhibitors. WCLs were then centrifuged at 20,000×g for 30 min at 4 °C and subjected to non-reducing or reducing 8–12% SDS-PAGE gel electrophoresis. The membrane was blocked with 5% non-fat milk in TBS and probed with antibodies. Antibodies to hMLKL (14993S), mMLKL (97705S), phospho-hMLKL (Ser358) (91689S), phospho-mMLKL (Ser345) (37333S), phospho-hRIP1 (Ser166) (65746S), mRIP1 (3493S), phospho-mRIP1 (Ser321) (38662S), phospho-hRIP3 (Ser227) (93654), mRIP3 (95702S), p-mRIP3 (Thr231/Ser232) (91702S), and LDH (2012S) (Cell Signaling Technology, Danvers, MA, USA), and GAPDH (LF-PA0018, Abfrontier, S. Korea), hRIP1 (ab72139, Abcam, Cambridge, UK), hRIP3 (sc-135170, Santa Cruz Biotechnology, Dallas, TX, USA), HMGB1 (ab78923, Abcam), and LAMP1 (ab24170, Abcam) antibodies were used.

Ct-hMLKL (183–471) = target: T1, Ct-hMLKL (183–471) (Homo sapiens, UniProt Q8NB16); experiment: SPR binding to Ct-hMLKL; details: CM5 chip
T1 construct: Nt-hMLKL (2–154), Nt-mMLKL (1–180), and Ct-hMLKL (183–471) were generated using the pBT7-N-His vector; His (N); made in house; host or cells: E. coli BL21
T1 sequence (Q8NB16 183-471): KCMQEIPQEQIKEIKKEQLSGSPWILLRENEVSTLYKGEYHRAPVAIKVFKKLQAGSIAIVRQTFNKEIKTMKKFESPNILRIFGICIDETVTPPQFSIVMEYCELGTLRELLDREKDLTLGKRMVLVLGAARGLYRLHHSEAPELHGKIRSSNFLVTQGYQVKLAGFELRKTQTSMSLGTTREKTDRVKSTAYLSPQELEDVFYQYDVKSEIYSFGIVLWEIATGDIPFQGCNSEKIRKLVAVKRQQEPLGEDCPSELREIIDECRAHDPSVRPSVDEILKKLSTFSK
Excerpt: (§1) The hMLKL plasmid (RC213152, OriGene, Rockville, MD, USA), and recombinant Wt-hMLKL (ab241453, Abcam) and Wt-mMLKL (MBS1379843, MyBioSource, San Diego, CA, USA) proteins were purchased. Nt-hMLKL (2–154), Nt-mMLKL (1–180), and Ct-hMLKL (183–471) were generated using the pBT7-N-His vector. Nt-hMLKL^C86A, Nt-hMLKL^F148A, -hMLKL^C86A/L89A/D94A, and Nt-hMLKL^R145A/R146A/F148A/M150A were generated using the Site-directed Mutagenesis Kit (EZ004S, Enzynomics, S. Korea). These constructs were subcloned into pBT7-N-His and pET-15b plasmid vectors. E. coli BL21 cells transformed with the cloned expression vectors were cultured in LB medium and supplemented with 100 μg/mL ampicillin until an OD at 600 nm of 0.5–0.6 was reached. The cultures were induced by 1 mM IPTG (367-93-1, Sigma-Aldrich). The cells were lysed and centrifuged. The clear supernatants were subjected to Ni-NTA affinity chromatography (175018169, QIAGEN, Hilden, Germany). Plasmids encoding mMLKL (1–464)–gyrase fusion constructs were kindly provided by Prof. […]
(§2) The interactions of Wt-hMLKL, Wt-mMLKL, Nt-mMLKL, Nt, and Ct-hMLKL proteins with Re-APO or Ox-APO were detected through SPR analysis using Biacore™ T200 (Cytiva, Marlborough, MA, USA). […] Sensorgrams were recorded and analyzed in real-time using the control software in the BIAcore T200 system. All data were analyzed using the BIA evaluation software (Cytiva).

Wt-mMLKL = target: T2, Wt-mMLKL (Mus musculus, UniProt Q9D2Y4); experiment: SPR binding to Wt-mMLKL; details: CM5 chip, 25 °C
T2 construct: purchased MyBioSource MBS1379843
T2 sequence (Q9D2Y4 whole entry): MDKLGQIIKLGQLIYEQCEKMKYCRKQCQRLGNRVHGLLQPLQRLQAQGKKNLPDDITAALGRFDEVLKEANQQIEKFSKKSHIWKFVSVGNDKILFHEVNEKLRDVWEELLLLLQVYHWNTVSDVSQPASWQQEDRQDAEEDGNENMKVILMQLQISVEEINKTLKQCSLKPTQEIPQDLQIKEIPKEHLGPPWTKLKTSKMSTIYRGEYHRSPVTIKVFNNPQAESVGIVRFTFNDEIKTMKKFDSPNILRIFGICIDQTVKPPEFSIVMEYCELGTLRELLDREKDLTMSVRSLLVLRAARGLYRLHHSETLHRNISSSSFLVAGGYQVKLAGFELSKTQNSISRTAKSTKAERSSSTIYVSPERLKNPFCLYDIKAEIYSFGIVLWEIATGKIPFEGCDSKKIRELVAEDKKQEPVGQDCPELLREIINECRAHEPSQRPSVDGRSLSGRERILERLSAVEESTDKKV
Excerpt: as §1, §2

SMILES	formation of mMLKL tetramers and octamers (mouse MLKL (mMLKL))	phosphorylation of mRIP1, mRIP3 and mMLKL (mouse MLKL (mMLKL))	binding in SPR (Ct-hMLKL (183–471))	Kd (Wt-mMLKL) [nM]
CN1CCc2cccc3c4c(cc1c23)C=CC(=O)C4=O [Ox-APO]	strongly prevented	little effect	no detectable binding	0.381
CN1CCc2cccc3c2C1Cc1ccc(O)c(O)c1-3 (centres unmarked) [Re-APO]	strongly prevented	little effect	no detectable binding	22.9
